Values of other authors, collected in US20050209551A1, “Detoxification and breast health preparations” (priority 2004, published 2005).

What was measured:
[1] = oral administration
[2] = system: precancerous lesions of the cervix and laryngeal papillomas; conditions: pathologies with a human papillomavirus (HPV); reported

Row | SMILES | fraction of EDTA absorbed when administered by mouth ([1]; general consensus) | unabsorbed EDTA that remains within the digestive tract ([1]; reported) [%] | clinical effectiveness in treating precancerous lesions of the cervix and laryngeal papillomas [2]
1 | O=C(O)CN(CCN(CC(=O)O)CC(=O)O)CC(=O)O [EDTA, ethylene-diaminetetraacetic acid] | about five | 95 | 
2 | c1ccc2c(Cc3c[nH]c4ccccc34)c[nH]c2c1 [DIM, 3,3′-diindolylmethane] |  |  | clinically effective
3 | OCc1c[nH]c2ccccc12 [Example I3C, indole-3-carbinol] |  |  | clinically effective
